Test results reported in PMC3514547 (Biochemistry, 2012).
“And” between values parts separate entries of the source, which are not always exact repeats. Equal values may be shown once. Read-outs that look alike come from different tables or passages of the source.

Assays:
[1] = target: T1, Pot1pN (first DNA-binding OB fold of S. pombe Pot1) (Schizosaccharomyces pombe, UniProt O13988); conditions: read-out: KD of Pot1pN/6mer interaction; cognate ssDNA ligand; cited from earlier work
[2] = target: T2, Pot1pN binding to 6mer ssDNA (Schizosaccharomyces pombe, UniProt O13988); assay: Secondary double filter-binding assay, Pot1pN/6mer; conditions: compound up to 500 μM
T2 sequence (O13988 1-187 limits assumed): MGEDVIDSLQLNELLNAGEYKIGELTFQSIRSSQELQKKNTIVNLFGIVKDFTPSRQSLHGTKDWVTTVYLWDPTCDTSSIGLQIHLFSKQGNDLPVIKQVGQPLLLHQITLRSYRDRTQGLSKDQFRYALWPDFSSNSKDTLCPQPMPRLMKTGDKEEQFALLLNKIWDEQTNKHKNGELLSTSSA

[3] = target: T1, Pot1pN (first DNA-binding OB fold of S. pombe Pot1); assay: ITC of ligand binding to Pot1pN; conditions: for -TΔS / ΔH / Kd: ITC, 20 °C; for Kd: one-site binding model
[4] = target: T3, Pot1pN (Schizosaccharomyces pombe, UniProt O13988); assay: Dynamic light scattering of Pot1pN/CR complex; conditions: DLS, equimolar CR 300 μM
T3 sequence (O13988 1-187 limits assumed): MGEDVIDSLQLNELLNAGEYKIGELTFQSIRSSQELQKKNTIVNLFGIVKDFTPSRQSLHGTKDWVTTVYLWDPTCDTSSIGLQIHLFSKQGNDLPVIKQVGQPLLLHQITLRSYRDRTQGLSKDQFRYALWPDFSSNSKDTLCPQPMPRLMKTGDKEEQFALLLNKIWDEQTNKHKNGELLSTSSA

[5] = test system: amyloidosis phenotypes; conditions: low doses (≤ 10 μM); cited from earlier work
[6] = target: T4, hPOT1-DBD binding to d(GGTTAGGGTTAG) (Homo sapiens, UniProt Q9NUX5); assay: Double filter-binding competition assay, hPOT1-DBD/telomeric ssDNA
T4 sequence (Q9NUX5 1-299): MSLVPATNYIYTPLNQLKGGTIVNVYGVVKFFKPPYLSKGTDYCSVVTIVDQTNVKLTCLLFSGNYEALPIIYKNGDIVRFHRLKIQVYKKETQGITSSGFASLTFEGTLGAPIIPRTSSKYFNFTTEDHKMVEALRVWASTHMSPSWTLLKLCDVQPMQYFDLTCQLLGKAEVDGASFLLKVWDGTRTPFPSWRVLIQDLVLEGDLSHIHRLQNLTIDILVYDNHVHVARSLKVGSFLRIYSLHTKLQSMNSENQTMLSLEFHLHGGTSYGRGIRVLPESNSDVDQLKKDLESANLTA

[7] = cited from earlier work
[8] = test system: cell culture and animal models; conditions: high doses (~ 100 μM); cited from earlier work
[9] = target: T5, SpPot1-DBD binding to d(GGTTACGGTTAC) (Schizosaccharomyces pombe, UniProt O13988); assay: Double filter-binding competition assay, SpPot1-DBD/cognate ssDNA
T5 sequence (O13988 1-389 limits assumed): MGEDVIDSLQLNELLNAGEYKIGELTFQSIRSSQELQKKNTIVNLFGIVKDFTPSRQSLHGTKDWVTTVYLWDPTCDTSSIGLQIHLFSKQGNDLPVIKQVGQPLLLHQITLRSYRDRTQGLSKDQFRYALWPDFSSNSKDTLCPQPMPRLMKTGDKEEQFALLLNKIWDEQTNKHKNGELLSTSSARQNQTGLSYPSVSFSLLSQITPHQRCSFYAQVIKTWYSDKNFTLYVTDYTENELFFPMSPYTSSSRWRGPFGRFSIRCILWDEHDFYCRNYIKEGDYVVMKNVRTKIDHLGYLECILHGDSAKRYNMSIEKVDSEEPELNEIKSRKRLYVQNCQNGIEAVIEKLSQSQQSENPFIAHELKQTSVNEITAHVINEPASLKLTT

[10] = CR solubility at NMR pH; format: physicochemical
[11] = test system: germ cells; conditions: prenatal administration during germ cell development, mice; cited from earlier work
[12] = target: T6, 6xHis-Pot1pN (TR-FRET) (Schizosaccharomyces pombe, UniProt O13988 1-187); assay: TR-FRET
T6 sequence: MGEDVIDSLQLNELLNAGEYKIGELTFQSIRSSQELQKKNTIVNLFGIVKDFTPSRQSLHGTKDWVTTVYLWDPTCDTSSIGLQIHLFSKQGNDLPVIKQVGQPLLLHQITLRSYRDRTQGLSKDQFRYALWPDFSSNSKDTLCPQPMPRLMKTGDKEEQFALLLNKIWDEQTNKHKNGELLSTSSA

[13] = target: T7, hPOT1 (hPOT1-DBD) (human, UniProt Q9NUX5 1-299); assay: double-filter binding
T7 sequence: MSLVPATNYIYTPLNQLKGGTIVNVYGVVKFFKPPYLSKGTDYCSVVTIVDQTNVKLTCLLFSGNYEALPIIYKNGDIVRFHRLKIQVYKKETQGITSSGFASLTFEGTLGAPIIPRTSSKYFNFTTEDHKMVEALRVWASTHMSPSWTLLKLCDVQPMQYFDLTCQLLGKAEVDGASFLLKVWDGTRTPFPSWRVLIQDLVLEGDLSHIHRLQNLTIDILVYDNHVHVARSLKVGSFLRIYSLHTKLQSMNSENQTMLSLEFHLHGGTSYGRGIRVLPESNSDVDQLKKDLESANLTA

[14] = target: T8, Pot1pN (first OB fold of SpPot1) (Schizosaccharomyces pombe, UniProt O13988 1-187); assay: double-filter binding
T8 sequence: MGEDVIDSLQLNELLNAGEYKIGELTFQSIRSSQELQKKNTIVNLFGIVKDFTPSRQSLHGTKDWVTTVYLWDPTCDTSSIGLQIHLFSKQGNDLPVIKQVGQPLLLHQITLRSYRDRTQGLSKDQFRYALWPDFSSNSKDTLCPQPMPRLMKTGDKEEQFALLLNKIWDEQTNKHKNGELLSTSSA

[15] = target: T9, SpPot1-DBD (Pot1-DBD) (Schizosaccharomyces pombe, UniProt O13988 1-389); assay: double-filter binding
T9 sequence: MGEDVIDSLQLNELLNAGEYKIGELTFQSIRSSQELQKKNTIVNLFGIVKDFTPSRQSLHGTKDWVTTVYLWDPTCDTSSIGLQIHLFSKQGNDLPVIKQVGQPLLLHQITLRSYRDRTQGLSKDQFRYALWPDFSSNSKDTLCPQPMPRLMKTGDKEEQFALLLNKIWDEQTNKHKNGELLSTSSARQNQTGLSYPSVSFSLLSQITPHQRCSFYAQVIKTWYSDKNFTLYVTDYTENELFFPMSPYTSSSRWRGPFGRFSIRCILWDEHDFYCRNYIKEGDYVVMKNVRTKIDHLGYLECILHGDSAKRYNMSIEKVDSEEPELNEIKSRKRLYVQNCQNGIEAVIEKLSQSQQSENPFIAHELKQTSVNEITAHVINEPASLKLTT

## d(GGTTAC) [6mer]
[1]
  Kd: 30 nM

## Cc1ccc2c(c1)sc(-c1ccc(N(C)C)cc1)[n+]2C [Thioflavin T]
[2]
  inhibition of Pot1pN binding to 6mer: no effect
[3]; 2 mM Thioflavin T titrated into Pot1pN, single replicate
  binding to Pot1pN by ITC: no detectable binding

## Nc1c(/N=N/c2ccc(-c3ccc(/N=N/c4cc(S(=O)(=O)O)c5ccccc5c4N)cc3)cc2)cc(S(=O)(=O)O)c2ccccc12 [CR, Congo red]
[4]
  calculated radius of Pot1pN/CR species: 3.8 nm
[4]; consistent with 3:3 trimer complex
  calculated MW of Pot1pN/CR species: 77 kDa
[5]
  effect on amyloidosis phenotypes and cell survival: rescue amyloidosis phenotypes and prolong cell survival
[2]
  inhibition of Pot1pN binding to 6mer: functionally inhibited Pot1pN binding to 6mer
[6]
  IC50: 130000 ± 17000 nM
[3]; ITC forward titration, one-site model
  binding stoichiometry (n): 1.07 ± 0.02
[3]
  -TΔS: 1.4 ± 0.2 kcal/mol
  ΔH: -9.7 ± 0.2 kcal/mol
  Kd: 700 ± 10 nM
[7]
  aggregation point: 50 µM
[8]
  toxicity: toxic
[9]
  IC50: 112000 ± 9000 nM
[10]
  solubility behaviour at pH 6.15: precipitates from solution
[11]
  effect on germ cell number: drastic and permanent reduction in germ cell number

## Cc1cc(-c2ccc(/N=N/c3c(S(=O)(=O)O)cc4cc(S(=O)(=O)O)cc(N)c4c3O)c(C)c2)ccc1/N=N/c1c(S(=O)(=O)O)cc2cc(S(=O)(=O)O)cc(N)c2c1O [TB, Trypan blue]
[3]
  -TΔS: 5.7 ± 0.02 kcal/mol
  ΔH: -13.6 ± 0.004 kcal/mol
  Kd: 1210 nM and 1200 nM

## TAAGGTTAC (ssDNA, 5' biotin (printed as biotin-conjugated threonine), 3-nt TAA linker) [biotin-d(TAAGGTTAC)]
[12]
  binding result: binds

## GGTTAGGGTTAG (ssDNA) [d(GGTTAGGGTTAG)]
[13]
  binding result: binds

## GGTTAC (ssDNA) [6mer]
[14]
  binding result: binds

## GGTTACGGTTAC (ssDNA) [d(GGTTACGGTTAC)]
[15]
  binding result: binds
